The inhibition is how much of the control response was suppressed. Read a high inhibition as a response far below the control. Usually MIC stands for the lowest concentration found to suppress growth. Read a low MIC as inhibition by little substance. For orientation: IC50 means the concentration that inhibits the measured activity by half.

The test system of experiment [1] is Mycobacterium tuberculosis. In words: Inhibition of Mycobacterium tuberculosis His6-tagged wild type InhA expressed in Escherichia coli BL21 at 50 uM using DDCoA as substrate relative to control.
For experiment [2], the system named is Mycobacterium tuberculosis. In words: Antitubercular activity against Mycobacterium tuberculosis H37Rv after 5 days by microplate Alamar blue assay. Type of experiment: functional. The conditions noted are these: 120 h. In general terms: Alamar Blue is a resazurin reagent that responds to reducing activity.
For another experiment, the system named is Staphylococcus aureus. The experiment in a line: Antibacterial activity against Staphylococcus aureus after 18 hrs by broth microdilution method. Type of experiment: functional. For orientation: In broth dilution the organism is exposed to a series of concentrations in liquid medium.
The subject of a further experiment is Escherichia coli. The experiment in a line: Antibacterial activity against Escherichia coli after 18 hrs by broth microdilution method. Type of experiment: functional.
Another experiment deals with A549. The experiment in a line: Cytotoxicity against human A549 cells by MTT assay. Type of experiment: cell-based. Background: Tetrazolium assays rely on reduction of a dye to a coloured formazan, in cell work by metabolically active cells.

≈ marks a conversion by molar mass, not a printed value. Some results are limits rather than exact numbers.

For the compound `Oc1cc(Cl)ccc1Oc1ccc(Cl)cc1Cl`, in experiment [1], the inhibition was over 99%.
With `O=C(NNC(=O)c1cccc(Cl)c1)c1ccc(-n2cccc2)cc1`, the MIC in experiment [2] worked out at 6.25 µg/mL (≈ 18.4 µM); against Staphylococcus aureus, 12.5 µg/mL (≈ 36.8 µM); with Escherichia coli, 3.12 µg/mL (≈ 9.2 µM).
For the compound `Cc1ccccc1C(=O)NNC(=O)c1ccc(-n2cccc2)cc1`, the MIC in experiment [2] was found to be 12.5 µg/mL (≈ 39.1 µM); in the experiment with Staphylococcus aureus it was 25 µg/mL (≈ 78.3 µM); against Escherichia coli, 12.5 µg/mL (≈ 39.1 µM). In the experiment with A549, this compound registered an IC50 of 196 µM. In experiment [1], this compound had an inhibition of 12%.
`CC[C@@H](CO)NCCN[C@@H](CC)CO` [ETHAMBUTOL] showed an MIC in experiment [2] of 0.5 µg/mL (≈ 2.45 µM).
For `O=C(NNC(=O)c1ccc(-n2cccc2)cc1)c1ccccc1`, the MIC in experiment [2] was found to be 50 µg/mL (≈ 164 µM); in the experiment with Staphylococcus aureus, 50 µg/mL (≈ 164 µM); against Escherichia coli, 25 µg/mL (≈ 81.9 µM). For the same compound, it took 248 µM to reach half-maximal inhibition in the experiment with A549 (IC50). For the same compound, the inhibition in experiment [1] was 13%.
`O=C(NNC(=O)c1ccccc1Cl)c1ccc(-n2cccc2)cc1`: the MIC in experiment [2] is 3.12 µg/mL (≈ 9.2 µM); against Staphylococcus aureus, 12.5 µg/mL (≈ 36.8 µM); in the experiment on Escherichia coli, 6.25 µg/mL (≈ 18.4 µM).
For `Nc1cccc(C(=O)NNC(=O)c2ccc(-n3cccc3)cc2)c1` the same measures were 25 µg/mL (≈ 78 µM), 50 µg/mL (≈ 156 µM) and 25 µg/mL (≈ 78 µM).
For the compound `CC(=O)c1cccc(C(=O)NNC(=O)c2ccc(-n3cccc3)cc2)c1`, the MIC in experiment [2] amounted to 12.5 µg/mL (≈ 36 µM); with Staphylococcus aureus it was 25 µg/mL (≈ 72 µM); in the experiment on Escherichia coli, 12.5 µg/mL (≈ 36 µM). Moreover, the IC50 with A549 was 79.2 µM. For the same compound, the inhibition in experiment [1] came to 31%.
With `Cc1ccc(C(=O)NNC(=O)c2ccc(-n3cccc3)cc2)cc1`, the MIC in experiment [2] was found to be 12.5 µg/mL (≈ 39.1 µM); against Staphylococcus aureus, 25 µg/mL (≈ 78.3 µM); against Escherichia coli, 6.25 µg/mL (≈ 19.6 µM).
On to `COc1ccc(C(=O)NNC(=O)c2ccc(-n3cccc3)cc2)cc1`, for which the values for the MIC (in experiment [2]; with Staphylococcus aureus; in the experiment on Escherichia coli) were 12.5 µg/mL (≈ 37.3 µM), 25 µg/mL (≈ 74.5 µM) and 25 µg/mL (≈ 74.5 µM), respectively. Further, 244 µM corresponded to half-maximal inhibition in the experiment with A549 (IC50). For the same compound, the inhibition in experiment [1] stood at 13%.
Take `O=C(NNC(=O)c1ccc(-n2cccc2)cc1)c1ccc(Br)cc1`: the MIC in experiment [2] stood at 3.12 µg/mL (≈ 8.13 µM); in the experiment on Staphylococcus aureus, 6.25 µg/mL (≈ 16.3 µM); in the experiment with Escherichia coli, 3.12 µg/mL (≈ 8.13 µM). The same compound displayed an IC50 in the experiment with A549 of 40.2 µM. Further, the inhibition in experiment [1] came to 38%.
On to `Nc1ccccc1C(=O)NNC(=O)c1ccc(-n2cccc2)cc1`, for which the MIC in experiment [2] was 12.5 µg/mL (≈ 39 µM); in the experiment with Staphylococcus aureus, 25 µg/mL (≈ 78 µM); against Escherichia coli, 12.5 µg/mL (≈ 39 µM).
For `O=C(NNC(=O)c1ccc(Cl)cc1Cl)c1ccc(-n2cccc2)cc1`, the values for the MIC (in experiment [2]; with Staphylococcus aureus; in the experiment with Escherichia coli) were 3.12 µg/mL (≈ 8.35 µM), 12.5 µg/mL (≈ 33.4 µM) and 3.12 µg/mL (≈ 8.35 µM), respectively.
Regarding `O=C(NNC(=O)c1ccc(-n2cccc2)cc1)c1ccc(F)cc1`, the results for the MIC (in experiment [2]; with Staphylococcus aureus; in the experiment on Escherichia coli) were 6.25 µg/mL (≈ 19.3 µM), 6.25 µg/mL (≈ 19.3 µM) and 3.12 µg/mL (≈ 9.67 µM), respectively. For the same compound, the 50% inhibitory concentration (IC50) with A549 was 194 µM. The inhibition in experiment [1] was 35%.
In experiment [2], `CO[C@H]1/C=C/O[C@@]2(C)Oc3c(C)c(O)c4c(O)c(c(/C=N/N5CCN(C)CC5)c(O)c4c3C2=O)NC(=O)/C(C)=C\C=C\[C@H](C)[C@H](O)[C@@H](C)[C@@H](O)[C@@H](C)[C@H](OC(C)=O)[C@@H]1C` [RIFAMPIN] returned an MIC of 0.4 µg/mL (≈ 0.486 µM).
As for `Cc1cccc(C(=O)NNC(=O)c2ccc(-n3cccc3)cc2)c1`, the MIC amounted to 12.5 µg/mL (≈ 39.1 µM) in experiment [2], 50 µg/mL (≈ 157 µM) with Staphylococcus aureus and 12.5 µg/mL (≈ 39.1 µM) with Escherichia coli. In the experiment on A549, this compound gave an IC50 of 196 µM. In experiment [1], this compound gave an inhibition of 29%.
As for `CCn1cc(C(=O)O)c(=O)c2cc(F)c(N3CCNCC3)cc21` [NORFLOXACIN], the MIC in the experiment with Staphylococcus aureus was determined as 2.02 µg/mL (≈ 6.33 µM); with Escherichia coli, 4 µg/mL (≈ 12.5 µM).
On to `O=C(NNC(=O)c1ccc(-n2cccc2)cc1)c1ccc(O)cc1`, for which the minimal inhibitory concentration (MIC) was 12.5 µg/mL (≈ 38.9 µM) in experiment [2], 25 µg/mL (≈ 77.8 µM) in the experiment on Staphylococcus aureus and 12.5 µg/mL (≈ 38.9 µM) against Escherichia coli. In addition, the IC50 in the experiment on A549 was found to be 96 µM. Also, in experiment [1], the inhibition worked out at 29%.
As for `O=C(NNC(=O)c1cccc([N+](=O)[O-])c1)c1ccc(-n2cccc2)cc1`, the MIC stood at 25 µg/mL (≈ 71.4 µM) in experiment [2], 50 µg/mL (≈ 143 µM) in the experiment with Staphylococcus aureus and 25 µg/mL (≈ 71.4 µM) in the experiment with Escherichia coli.
`O=C(O)c1cn(C2CC2)c2cc(N3CCNCC3)c(F)cc2c1=O` [CIPROFLOXACIN]: the lowest concentration to inhibit growth against Staphylococcus aureus (MIC) was 0.15 µg/mL (≈ 0.453 µM).
On to `Nc1ccc(C(=O)NNC(=O)c2ccc(-n3cccc3)cc2)cc1`, for which the MIC in experiment [2] amounted to 12.5 µg/mL (≈ 39 µM); against Staphylococcus aureus it was 25 µg/mL (≈ 78 µM); against Escherichia coli, 12.5 µg/mL (≈ 39 µM).
For the compound `O=C(NNC(=O)c1ccc(-n2cccc2)cc1)c1ccc(Cl)cc1`, the figures for the MIC (in experiment [2]; with Staphylococcus aureus; in the experiment on Escherichia coli) were 3.12 µg/mL (≈ 9.2 µM), 6.25 µg/mL (≈ 18.4 µM) and 3.12 µg/mL (≈ 9.2 µM), respectively. The compound further showed an IC50 in the experiment with A549 of 40.2 µM. This compound came in with an inhibition in experiment [1] of 36%.
For `O=C(NNC(=O)c1ccc([N+](=O)[O-])cc1)c1ccc(-n2cccc2)cc1`, the MIC was 12.5 µg/mL (≈ 35.7 µM) in experiment [2], 25 µg/mL (≈ 71.4 µM) in the experiment with Staphylococcus aureus and 12.5 µg/mL (≈ 35.7 µM) in the experiment on Escherichia coli. In addition, the IC50 in the experiment with A549 was determined as 96 µM. Moreover, the inhibition in experiment [1] worked out at 22%.
For `O=C(NNC(=O)c1ccccc1Br)c1ccc(-n2cccc2)cc1`, the MIC stood at 3.12 µg/mL (≈ 8.13 µM) in experiment [2], 6.25 µg/mL (≈ 16.3 µM) with Staphylococcus aureus and 3.12 µg/mL (≈ 8.13 µM) in the experiment on Escherichia coli.

For the origin of these results see ChEMBL document CHEMBL4002565, “Synthesis, biological evaluation and in silico molecular modeling of pyrrolyl benzohydrazide derivatives as enoyl ACP reductase inhibitors” (Eur J Med Chem, 2017).
